Reference: patent US9598405B2, “Thiazole-substituted aminopyridines as spleen tyrosine kinase inhibitors” (Merck Sharp & Dohme Corp., priority 2012, dated 2017)

Tests used:
[1] = target: recombinant human GST-SYK (Homo sapiens (Human), UniProt P43405); test: Homogeneous Time-Resolved Fluorescence (HTRF) assay for the recombinant human Syk enzyme; type: biochemical
Protocol: Homogeneous Time-Resolved Fluorescence (HTRF) Assay for the Recombinant Human Syk Enzyme
A recombinant GST-hSYK fusion protein was used to measure potency of compounds to inhibit human Syk activity. […] Final volume of the reaction was 10 μL. […] To quench the reaction and detect the phosphorylated product, 2 nM of a Europium-anti-phosphotyrosine antibody (Perkin Elmer #AD0161) and 70 nM SA-APC (Perkin-Elmer #CR130-100) were added together in 15 mM Tris pH 7.5, 40 mM EDTA, 0.01% tween 20. Final volume of the quenching solution was […]. The resulting HTRF signal was measured after 30 minutes on an EnVision (Perkin-Elmer) reader using a time-resolved fluorescence protocol.

[2] = system: PGD2; details: dosed intranasally, phase I/II study, allergic rhinitis; cited from earlier work
[3] = phase II clinical trial, allergic rhinitis; cited from earlier work

`COCc1cc(Nc2cc(C(F)(F)F)ccn2)nc(-c2cnc([C@]3(O)CC[C@@H](C(=O)OC)C(C)(C)C3)s2)c1` (single isomer, unassigned) [Example 4.8, methyl (1R,4S or 1S,4R)-4-hydroxy-4-{5-[4-(methoxymethyl)-6-{[4-(trifluoromethyl)pyridin-2-yl]amino}pyridin-2-yl]-1,3-thiazol-2-yl}-2,2-dimethylcyclohexanecarboxylate] showed an IC50 [1] of 1170 nM.
In the case of `Oc1cccc(Nc2ncc(F)c(Nc3cccc(O)c3)n2)c1` [Example R112], the “change in PGD2” value [2] is given as “statistically significant decrease”, the clinical safety [2] is given as “safe across a range of indicators” and the efficacy versus placebo [3] is given as “lack of efficacy”.
